According to patent US7351874B2, “Mouse model for fatty acid amide-related neurobehaviors” (The Scripps Research Institute, priority 2001, dated 2008):
Entries after “also recorded” stand apart in the source; their conditions may differ.

Legend:
[1] = system: FAAH−/− and FAAH+/+ mice; experiment: Catalepsy bar test; format: in vivo, mouse
Description: (§1) All drugs were administered intraperitoneal (ip) in a mixture of 1 part ethanol: 1 part EMULPHOR alcohol (GAF Corp.; New York N.Y.): 18 parts saline (10 μl/g body weight), except naloxone was administered ip in saline.
(§2) Catalepsy was evaluated using the bar test, in which the front paws of each subject were placed on a rod (0.75 cm diameter) that was elevated 4.5 cm above the surface. Mice that remained motionless with their paws on the bar for 10 sec (with the exception of respiratory movements) were scored as cataleptic. Rectal temperature was determined by inserting a thermocouple probe 1.2 cm into the rectum; the temperature was obtained using a telethermometer. The pre-injection rectal temperatures for FAAH^+/+ (35.6±0.2° C., n=28) and FAAH^−/− mice (35.5±0.1° C., n=30) mice were equivalent. Catalepsy and rectal temperature were assessed at 60 min post-injection unless otherwise indicated.

[2] = system: FAAH−/− and FAAH+/+ mice; experiment: Neurobehavioral assays taken together (hypomotility, analgesia, catalepsy, hypothermia); format: in vivo, mouse
Description: as §1
(§3) Locomotor activity was assessed by placing each mouse in a clear plexiglass cage (18×10×8.5 inches; l.w.h) that was marked in 7 cm square grids on the floor of the cage. The number of grids that were traversed by the hind paws was counted from 15 to 20 min post-injection. Nociception was assessed using the tail immersion assay, wherein each mouse was hand-held with approximately 1 cm of the tip of the tail immersed into a water bath maintained at 56.0° C. and the latency for the animal to withdraw its tail was scored. The cutoff was 15 sec, and the data were expressed as the percent maximum possible effect (% MPE), where % MPE=100×{(post-injection latency−pre-injection latency)/(15−pre-injection latency)}. Baseline thermal nociception was also analyzed using the hot plate test, wherein the latency to jump or lick/shake a hind paw was scored.
as §2, with “The pre-injection rectal temperatures for FAAH^+/+ (35.6±0.2° C., n=28) and FAAH^−/− mice (35.5±0.1° C., n=30) mice were equivalent.” left out

[3] = system: FAAH−/−, FAAH+/− and FAAH+/+ mice; experiment: Hot plate test, response latency before and after treatment; format: in vivo, mouse
Description: as §3
To test whether enhanced levels of endogenous anandamide were responsible for the analgesia observed in FAAH^−/− mice, the pain responses of these animals and FAAH^+/+ mice were tested prior to and after treatment with vehicle or with SR141716A.

[4] = system: FAAH−/− and FAAH+/+ mice; experiment: Rectal temperature (hypothermia); format: in vivo, mouse
Description: as §1, §2

[5] = system: FAAH−/− and FAAH+/+ mice; experiment: Tail immersion assay (antinociception); format: in vivo, mouse
Description: as §1, §3

[6] = system: FAAH−/− and FAAH+/+ mice; experiment: Locomotor activity (hypomotility), grid crossings 15 to 20 min post-injection; format: in vivo, mouse
Description: as §1, §3

[7] = cited from earlier work
[8] = system: FAAH(−/−), FAAH-TG(+) and FAAH(−/−), FAAH-TG(−) mice; experiment: Pharmacological effects of anandamide in mice with FAAH expression restricted to the nervous system; format: in vivo, mouse; details: 50 mg/kg i.p.
Description: Animals were tested at 20 minutes (A) and 60 minute (B and C) following treatment with anandamide. HT−=FAAH(+/−), FAAH-TG(−); KO+=FAAH(−/−), FAAH-TG(+); KO−=FAAH(−/−), FAAH-TG(−).
Exogenously applied and endogenously produced fatty acid amides induce a variety of behavioral effects in mammals, which may reflect either central or peripheral sites of action. In wild type mammals, FAAH is not only expressed in the central and peripheral nervous system, but also in a variety of non-nervous system peripheral tissues, including liver, kidney, and testis. […] To address this issue, the mouse FAAH cDNA was placed under the control of the neural specific enolase (NSE) promoter (Forss-Petter et al. (1990) Neuron 5, 187-197) and this construct was used to generate transgenic mice (mixed background of C57Bl/6 and Balb/c) by pronuclear injection methods following standard literature procedures (Gordon, J. W. (1993) Methods Enzymol. 225, 747-771). These animals were screened by Southern blotting for genomic incorporation of the FAAH gene and multiple FAAH-positive transgenic [FAAH-TG(+)] lines were identified. One of these FAAH-TG(+) lines was then crossed to mice heterozygotic for FAAH deletion [FAAH(+/−) mice]. To create representative mouse genotypes for biochemical and behavioral analysis, the following breeding pairs were set up: FAAH(+/−),FAAH-TG(+)×FAAH(−/−),FAAH-TG(−). […]

[9] = system: FAAH−/− mice; experiment: Overt cage behavior after anandamide; format: in vivo, mouse
Description: If startled by sound or touch, the knockout mice reacted with brief fits of spastic movement, then quickly reentered a flattened, immobile state. Anandamide-treated FAAH^−/− mice remained immobile for 2 to 4 hr, depending on dose, after which they gradually reinitiated normal cage activities, including movement, rearing, and grooming.

[10] = target: T1, fatty acid amide hydrolase (FAAH) (Mus musculus, UniProt O08914); experiment: FAAH activity assay, conversion of 14C-labeled substrates by thin layer chromatography; format: biochemical; details: pH 7.2
T1 construct: Brain and liver were isolated from homozygous wild type (FAAH^+/+), heterozygous (FAAH^+/−) and homozygous knockout (FAAH^−/−) mice; from tissue; host or cells: mouse brain and liver extracts (129SvJ-C57BL/6 intercross offspring)
T1 sequence (O08914 1-579): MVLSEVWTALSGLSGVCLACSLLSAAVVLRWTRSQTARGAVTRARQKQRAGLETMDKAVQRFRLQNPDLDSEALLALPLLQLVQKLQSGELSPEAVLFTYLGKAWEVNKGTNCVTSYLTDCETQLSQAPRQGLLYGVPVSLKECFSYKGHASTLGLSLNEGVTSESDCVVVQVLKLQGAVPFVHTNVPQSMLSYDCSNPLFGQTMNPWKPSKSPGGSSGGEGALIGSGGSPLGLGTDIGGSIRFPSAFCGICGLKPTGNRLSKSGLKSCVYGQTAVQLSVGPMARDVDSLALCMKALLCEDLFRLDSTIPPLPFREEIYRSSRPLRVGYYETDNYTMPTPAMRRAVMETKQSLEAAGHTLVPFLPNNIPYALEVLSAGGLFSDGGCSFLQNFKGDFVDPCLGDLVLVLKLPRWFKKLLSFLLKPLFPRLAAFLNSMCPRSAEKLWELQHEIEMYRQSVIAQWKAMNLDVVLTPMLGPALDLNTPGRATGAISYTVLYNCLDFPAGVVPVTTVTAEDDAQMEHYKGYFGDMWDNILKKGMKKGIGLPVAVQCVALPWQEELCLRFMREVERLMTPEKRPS
Description: The mice also were examined for FAAH enzymatic activity. FAAH activity assays for oleamide and anandamide were measured by following the conversion of ^14C-labeled substrates using a thin layer chromatography assay essentially as described by Patricelli et al. (Biochemistry 38:9804-9812, 1999), except that enzyme assays were conducted at pH 7.2. […] Brain extracts from FAAH^−/− mice hydrolyzed anandamide and oleamide 50 to 100 times more slowly than brain extracts from the homozygous wild type mice.

[11] = FAAH−/− mice, 10 mg/kg, 10 min prior to anandamide 50 mg/kg
[12] = FAAH−/− mice, 50 mg/kg ip, 60 min post-injection

SMILES: Cc1c(C(=O)NN2CCCCC2)nn(-c2ccc(Cl)cc2Cl)c1-c1ccc(Cl)cc1 [SR141716A]
- effect of pretreatment on anandamide-induced catalepsy [1, 11]: completely blocked
- effect of pretreatment on all behavioral effects of anandamide ([2]; FAAH−/− mice, 10 mg/kg ip, 10 min prior to anandamide 50 mg/kg): completely blocked
- change of hot plate response latency after treatment ([3]; FAAH+/+ (b22 also FAAH+/−) mice, listed as SR141617A): No significant change from baseline; also recorded: modest increases in their hot plate response latencies that failed to reach significance
- change of hot plate pain response latency after treatment ([3]; FAAH−/− mice): dramatic reduction
- effect of pretreatment on anandamide-induced hypothermia [4, 11]: completely blocked
- effect of pretreatment on anandamide-induced antinociception [5, 11]: completely blocked
- effect of pretreatment on anandamide-induced hypomotility [6, 11]: completely blocked

SMILES: CCCCCc1cc(O)c2c(c1)OC(C)(C)[C@@H]1CCC(C)=C[C@@H]21 [THC, (−)-Δ^9-tetrahydrocannabinol]
- dose response profiles in FAAH−/− versus FAAH+/+ mice, all behavioral assays tested ([2]; FAAH−/− and FAAH+/+ mice (Table 2, not given)): nearly identical

SMILES: CCCCC/C=C\C/C=C\C/C=C\C/C=C\CCCC(=O)NCCO [anandamide, N-arachidonoyl-ethanolamine]
- time by which catalepsy gradually dissipated ([1]; FAAH−/− mice, 50 mg/kg): ≤ 4 h
- time post-treatment of most extreme catalepsy ([1]; FAAH−/− mice, 50 mg/kg): 1 h
- cataleptic behavior in the bar test, share of the test group [1, 12]: 88%
- ED50 ([1]; Mus musculus, CL-11, ip, read-out: ED50, catalepsy): 20 mg/kg
- half-life in vivo [7]: on the order of minutes
- behavioral effects in FAAH+/+ mice ([2]; FAAH+/+ mice, 6.25 to 50 mg/kg ip): failed to produce any significant effects
- state of treated FAAH−/− mice 24 hr after treatment ([2]; FAAH−/− mice, 24 hr after treatment): indistinguishable from FAAH^+/+ mice
- time at which rectal temperature began to return to wild type values ([4]; FAAH−/− mice, 50 mg/kg): ≤ 4 h
- reduction in rectal temperature [4, 12]: 7.9±0.3 °C
- ED50 ([4]; Mus musculus, ip, read-out: ED50, hypothermia (rectal temperature)): 11 mg/kg
- analgesia in the tail immersion test, maximum possible effect (MPE) ([5]; FAAH−/− mice, 50 mg/kg ip): 89±11%
- ED50 ([5]; Mus musculus, ip, read-out: ED50, antinociception (tail-immersion)): 13 mg/kg
- behavioral effects in mice expressing FAAH only in the nervous system ([8]; FAAH-TG(+) (KO+) mice, 50 mg/kg): sufficient to block the pharmacological effects; also recorded: dramatically reduced
- behavioral effects in mice lacking FAAH ([8]; FAAH-TG(−) (KO−) mice): displayed significant behavioral effects
- time at which the behavioral impact was readily detected [9]: within five min of treatment
- time the mice remained immobile ([9]; depending on dose): 2 to 4 h
- reduction in spontaneous activity ([6]; FAAH−/− mice, 50 mg/kg ip): 84±8%
- ED50 ([6]; Mus musculus, ip, read-out: ED50, hypomotility (locomotor activity)): < 6.25 mg/kg

SMILES: C=CCN1CC[C@]23c4c5ccc(O)c4O[C@H]2C(=O)CC[C@@]3(O)[C@H]1C5 [naloxone]
- effect of pretreatment on activity due to anandamide ([2]; FAAH−/− mice, 2 mg/kg ip in saline): failed to reduce any activity

SMILES: CCCCCCCC/C=C\CCCCCCCC(N)=O [oleamide]
- hydrolysis by FAAH−/− brain extracts, times more slowly than homozygous wild type brain extracts [10]: 50 to 100 times
